Test results as given in patent US20100273769A1, “COMPOSITION AND METHOD FOR THE TREATMENT OF PARKINSON'S DISEASE” (priority 2009, published 2010).
pIC50: −log10 of the molar value.

Assays:
[1] = biological target: T1, G2019S mutant LRRK2 (Homo sapiens, UniProt Q5S007, G2019S); test: Adapta assay, inhibition of G2019S mutant LRRK2 kinase fragment; type: biochemical; conditions: 100 μM ATP, FIG. 3B
T1 construct: of the mutant aa1326-2527 kinase fragment are used in the assays; GST; made in house
T1 sequence (Q5S007 1326-2527 G2019S): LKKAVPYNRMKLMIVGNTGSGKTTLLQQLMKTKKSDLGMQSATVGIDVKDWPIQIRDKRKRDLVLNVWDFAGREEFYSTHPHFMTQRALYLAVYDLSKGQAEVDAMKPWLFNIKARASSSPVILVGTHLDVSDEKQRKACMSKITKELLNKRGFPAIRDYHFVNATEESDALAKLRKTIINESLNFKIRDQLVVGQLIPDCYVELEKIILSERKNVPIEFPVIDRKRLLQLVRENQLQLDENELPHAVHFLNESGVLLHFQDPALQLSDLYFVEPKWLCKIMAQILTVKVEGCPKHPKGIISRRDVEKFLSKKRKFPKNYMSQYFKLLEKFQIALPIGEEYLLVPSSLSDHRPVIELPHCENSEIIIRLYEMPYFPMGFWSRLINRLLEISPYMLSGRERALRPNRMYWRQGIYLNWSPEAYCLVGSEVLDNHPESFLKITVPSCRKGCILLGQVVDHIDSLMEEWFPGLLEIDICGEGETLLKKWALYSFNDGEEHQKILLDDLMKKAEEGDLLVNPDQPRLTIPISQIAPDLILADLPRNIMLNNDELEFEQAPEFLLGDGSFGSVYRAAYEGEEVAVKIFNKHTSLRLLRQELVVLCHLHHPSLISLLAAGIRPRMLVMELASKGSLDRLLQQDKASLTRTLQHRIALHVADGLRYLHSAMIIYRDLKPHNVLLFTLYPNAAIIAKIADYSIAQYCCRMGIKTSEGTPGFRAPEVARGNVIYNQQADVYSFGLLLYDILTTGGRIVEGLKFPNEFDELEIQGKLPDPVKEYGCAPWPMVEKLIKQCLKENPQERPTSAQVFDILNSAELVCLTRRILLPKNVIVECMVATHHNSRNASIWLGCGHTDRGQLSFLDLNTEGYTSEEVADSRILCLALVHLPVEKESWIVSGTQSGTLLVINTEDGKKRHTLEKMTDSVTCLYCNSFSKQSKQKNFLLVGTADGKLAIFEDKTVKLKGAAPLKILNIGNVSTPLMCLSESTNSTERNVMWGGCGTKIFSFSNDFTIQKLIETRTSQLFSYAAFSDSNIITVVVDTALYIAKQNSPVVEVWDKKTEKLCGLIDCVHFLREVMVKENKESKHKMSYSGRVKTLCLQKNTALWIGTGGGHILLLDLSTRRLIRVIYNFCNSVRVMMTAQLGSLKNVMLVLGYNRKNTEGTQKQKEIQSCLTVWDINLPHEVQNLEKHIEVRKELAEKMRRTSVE
Experimental: Duplicate assay mixtures are set up each in a 10 μL volume containing 17 ng (8 nM) of human LRRK2 protein fragment encompassing amino acids 1326 to 2527, obtained as a recombinant GST fusion protein [according to Jaleel et al., Biochem. J. 405, 307-317 (2007)], 200 μM LRRKtide ([…]peptide), 25 mM Tris, pH 8.2, 5 mM MgCl2, 0.5 mM EGTA, 100 μM ATP, 0.005% Brij-35, 1% DMSO, and compound 3 in a series of concentrations (OnM, 0.1 nM, 0.3 nM, 1 nM, 3 nM, 10 nM, 30 nM, 100 nM, 300 nM, 1000 nM). After incubation for 1 hr at ambient temperature, 5 μL of the Adapta® Assay Detection Mix (Invitrogen) is added, containing 30 mM EDTA to stop the kinase reaction, 30 nM of the Eu-labelled anti-ADP antibody, and the AlexaFluor°-ADP conjugate. […]
The assays conducted in a 384 well microplate are then read out in a fluorescence microplate reader to establish the ratio of emissions at 665 nm (ADP-tracer) and at 615 nm (Eu-antibody) as a measure of ADP concentration by virtue of Fluorescence Resonance Energy Transfer (FRET). The conversion in % of ATP into ADP by the kinase reaction in each well is determined from the ADP/ATP standard curve, and means are formed from each duplicate assay well. […]
Inhibition is determined in the same way as in example 2, except that due to the higher specific activity […] of the mutant aa1326-2527 kinase fragment are used in the assays

[2] = biological target: ERK2 (Homo sapiens, UniProt P28482); test: Kinase specificity, ERK2; type: biochemical; conditions: 100 μM ATP
[3] = biological target: Cdk1 (Homo sapiens, UniProt P06493); test: Kinase specificity, Cdk1; type: biochemical; conditions: 100 μM ATP
[4] = rodents, in vivo

Sequence of ERK2 (P28482 whole entry, species assumed): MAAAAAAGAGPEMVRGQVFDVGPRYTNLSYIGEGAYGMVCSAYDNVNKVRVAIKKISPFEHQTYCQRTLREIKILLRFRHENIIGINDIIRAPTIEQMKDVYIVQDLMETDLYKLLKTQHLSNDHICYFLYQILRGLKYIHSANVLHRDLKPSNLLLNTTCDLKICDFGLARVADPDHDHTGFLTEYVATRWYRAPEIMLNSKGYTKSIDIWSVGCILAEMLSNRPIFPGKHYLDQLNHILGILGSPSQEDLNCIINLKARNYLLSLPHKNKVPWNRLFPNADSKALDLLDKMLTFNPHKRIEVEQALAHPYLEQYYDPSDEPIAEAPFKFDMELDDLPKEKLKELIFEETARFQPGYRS
Sequence of Cdk1 (P06493 whole entry, species assumed): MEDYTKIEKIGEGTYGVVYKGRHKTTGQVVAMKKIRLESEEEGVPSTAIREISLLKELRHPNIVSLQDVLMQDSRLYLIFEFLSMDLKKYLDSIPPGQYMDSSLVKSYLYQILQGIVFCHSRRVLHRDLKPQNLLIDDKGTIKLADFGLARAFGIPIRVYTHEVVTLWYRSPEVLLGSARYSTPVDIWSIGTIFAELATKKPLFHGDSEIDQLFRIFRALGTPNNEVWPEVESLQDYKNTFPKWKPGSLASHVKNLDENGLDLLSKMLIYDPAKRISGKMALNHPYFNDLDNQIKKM
Sequence of Cdk1 (P14635 whole entry partner, species assumed): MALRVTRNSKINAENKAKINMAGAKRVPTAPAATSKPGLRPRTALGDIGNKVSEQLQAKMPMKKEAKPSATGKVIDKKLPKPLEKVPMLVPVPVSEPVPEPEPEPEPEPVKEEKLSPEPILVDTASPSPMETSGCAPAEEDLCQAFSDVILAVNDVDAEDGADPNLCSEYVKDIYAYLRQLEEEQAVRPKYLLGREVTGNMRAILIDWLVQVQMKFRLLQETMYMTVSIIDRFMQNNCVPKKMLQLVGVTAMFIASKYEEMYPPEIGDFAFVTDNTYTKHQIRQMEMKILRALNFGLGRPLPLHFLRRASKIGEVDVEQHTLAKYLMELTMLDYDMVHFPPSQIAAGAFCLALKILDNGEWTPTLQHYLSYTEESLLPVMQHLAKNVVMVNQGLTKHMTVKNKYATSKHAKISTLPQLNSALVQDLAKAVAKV

SMILES: CNC(=O)[C@@]1(N)CC2OC1(C)n1c3ccccc3c3c4c(c5c6ccccc6n2c5c31)C(=O)NC4 (stereo partly shown) [Compound 3]
- IC50 relative to nominal kinase concentration, G2019S LRRK2 [1]: substantially below the nominal concentration of the kinase itself
- pIC50 [2]: 7.59
- pIC50 [3]: 7.77
- Plasma concentration sustained without detectable toxicity [4]: 600 to 800 nM
